Assay results taken from ChEMBL document CHEMBL3612057, “Discovery of indolizines containing triazine moiety as new leads for the development of antitumoral agents targeting mitotic events” (2015).
Active and inactive are the calls of the source. No cut-off for these calls is given here.

Experiments:
[1] = system: U-251; assay: Cytotoxicity against human U251 cells assessed as growth inhibition at 10 uM after 24 hrs by SRB assay; format: functional; conditions: U-251, 24 h, read-out: GI
[2] = system: NCI/ADR-RES; assay: Cytotoxicity against human NCI/ADR-RES cells assessed as growth inhibition at 10 uM after 24 hrs by SRB assay; format: functional; conditions: read-out: GI
[3] = system: NCI-H226; assay: Cytotoxicity against human NCI-H226 cells assessed as growth inhibition at 10 uM after 24 hrs by SRB assay; format: functional; conditions: NCI-H226, 24 h, read-out: GI
[4] = system: CAKI-1; assay: Cytotoxicity against human CAKI-1 cells assessed as growth inhibition at 10 uM after 24 hrs by SRB assay; format: functional; conditions: CAKI-1, 24 h, read-out: GI
[5] = system: SK-MEL-5; assay: Cytotoxicity against human SK-MEL-5 cells assessed as growth inhibition at 10 uM after 24 hrs by SRB assay; format: functional; conditions: SK-MEL-5, 24 h, read-out: GI
[6] = system: HCT-116; assay: Cytotoxicity against human HCT116 cells assessed as growth inhibition at 10 uM after 24 hrs by SRB assay; format: functional; conditions: HCT-116, 24 h, read-out: GI
[7] = system: 786-0; assay: Cytotoxicity against human 786-0 cells assessed as growth inhibition at 10 uM after 24 hrs by SRB assay; format: functional; conditions: 786-0, 24 h, read-out: GI
[8] = system: DU-145; assay: Cytotoxicity against human DU145 cells after 48 hrs by SRB assay; format: functional; conditions: DU-145, 48 h
[9] = system: U-251; assay: Cytotoxicity against human U251 cells after 48 hrs by SRB assay; format: functional; conditions: U-251, 48 h
[10] = system: PC-3; assay: Cytotoxicity against human PC3 cells assessed as growth inhibition at 10 uM after 24 hrs by SRB assay; format: functional; conditions: PC-3, 24 h, read-out: GI
[11] = system: HOP-92; assay: Cytotoxicity against human HOP92 cells after 48 hrs by SRB assay; format: functional; conditions: HOP-92, 48 h
[12] = system: OVCAR-4; assay: Cytotoxicity against human OVCAR4 cells assessed as growth inhibition at 10 uM after 24 hrs by SRB assay; format: functional; conditions: OVCAR-4, 24 h, read-out: GI
[13] = system: K562; assay: Cytotoxicity against human K562 cells assessed as growth inhibition at 10 uM after 24 hrs by SRB assay; format: functional; conditions: K562, 24 h, read-out: GI
[14] = system: UACC-257; assay: Cytotoxicity against human UACC257 cells assessed as growth inhibition at 10 uM after 24 hrs by SRB assay; format: functional; conditions: UACC-257, 24 h, read-out: GI
[15] = system: MDA-MB-231; assay: Cytotoxicity against human MDA-MB-231 cells after 48 hrs by SRB assay; format: functional; conditions: MDA-MB-231, 48 h
[16] = system: HL-60(TB); assay: Cytotoxicity against human HL-60(TB) cells assessed as growth inhibition at 10 uM after 24 hrs by SRB assay; format: functional; conditions: HL-60, 24 h, read-out: GI
[17] = system: TK-10; assay: Cytotoxicity against human TK10 cells after 48 hrs by SRB assay; format: functional; conditions: TK-10, 48 h
[18] = system: 786-0; assay: Cytotoxicity against human 786-0 cells after 48 hrs by SRB assay; format: functional; conditions: 786-0, 48 h
[19] = system: MDA-MB-231; assay: Cytotoxicity against human MDA-MB-231 cells assessed as growth inhibition at 10 uM after 24 hrs by SRB assay; format: functional; conditions: MDA-MB-231, 24 h, read-out: GI
[20] = system: RXF 393; assay: Cytotoxicity against human RXF393 cells assessed as growth inhibition at 10 uM after 24 hrs by SRB assay; format: functional; conditions: RXF 393, 24 h, read-out: GI
[21] = system: HOP-62; assay: Cytotoxicity against human HOP62 cells assessed as growth inhibition at 10 uM after 24 hrs by SRB assay; format: functional; conditions: HOP-62, 24 h, read-out: GI
[22] = system: SK-MEL-28; assay: Cytotoxicity against human SK-MEL-28 cells after 48 hrs by SRB assay; format: functional; conditions: SK-MEL-28, 48 h
[23] = system: MDA-MB-435; assay: Cytotoxicity against human MDA-MB-435 cells assessed as growth inhibition at 10 uM after 24 hrs by SRB assay; format: functional; conditions: MDA-MB-435, 24 h, read-out: GI
[24] = system: CCRF-CEM; assay: Cytotoxicity against human CCRF-CEM cells assessed as growth inhibition at 10 uM after 24 hrs by SRB assay; format: functional
[25] = system: SNB-75; assay: Cytotoxicity against human SNB75 cells after 48 hrs by SRB assay; format: functional; conditions: SNB-75, 48 h
[26] = species: Ovis aries; assay: Inhibition of sheep tubulin polymerization at 100 uM by fluorescence assay
[27] = system: T47D; assay: Cytotoxicity against human T47D cells assessed as growth inhibition at 10 uM after 24 hrs by SRB assay; format: functional; conditions: read-out: GI
[28] = system: ACHN; assay: Cytotoxicity against human ACHN cells assessed as growth inhibition at 10 uM after 24 hrs by SRB assay; format: functional; conditions: read-out: GI
[29] = system: SK-OV-3; assay: Cytotoxicity against human SKOV3 cells assessed as growth inhibition at 10 uM after 24 hrs by SRB assay; format: functional; conditions: SK-OV-3, 24 h, read-out: GI
[30] = system: RPMI-8226; assay: Cytotoxicity against human RPMI8226 cells assessed as growth inhibition at 10 uM after 24 hrs by SRB assay; format: functional; conditions: RPMI-8226, 24 h, read-out: GI
[31] = system: MCF7; assay: Cytotoxicity against human MCF7 cells assessed as growth inhibition at 10 uM after 24 hrs by SRB assay; format: functional; conditions: MCF7, 24 h, read-out: GI
[32] = system: NCI-H522; assay: Cytotoxicity against human NCI-H522 cells assessed as growth inhibition at 10 uM after 24 hrs by SRB assay; format: functional; conditions: NCI-H522, 24 h, read-out: GI
[33] = system: UACC-62; assay: Cytotoxicity against human UACC62 cells assessed as growth inhibition at 10 uM after 24 hrs by SRB assay; format: functional; conditions: UACC-62, 24 h, read-out: GI
[34] = system: A549; assay: Cytotoxicity against human A549 cells assessed as growth inhibition at 10 uM after 24 hrs by SRB assay; format: functional; conditions: A549, 24 h, read-out: GI
[35] = Cytotoxicity against human Hs578T cells assessed as growth inhibition at 10 uM after 24 hrs by SRB assay; format: functional; conditions: Hs-578T, read-out: GI
[36] = system: RXF 393; assay: Cytotoxicity against human RXF393 cells after 48 hrs by SRB assay; format: functional; conditions: RXF 393, 48 h
[37] = system: SF-539; assay: Cytotoxicity against human SF539 cells assessed as growth inhibition at 10 uM after 24 hrs by SRB assay; format: functional; conditions: SF-539, 24 h, read-out: GI
[38] = system: SNB-75; assay: Cytotoxicity against human SNB75 cells assessed as growth inhibition at 10 uM after 24 hrs by SRB assay; format: functional; conditions: SNB-75, 24 h, read-out: GI
[39] = system: NCI-H460; assay: Cytotoxicity against human NCI-H460 cells assessed as growth inhibition at 10 uM after 24 hrs by SRB assay; format: functional; conditions: NCI-H460, 24 h, read-out: GI
[40] = system: SK-MEL-28; assay: Cytotoxicity against human SK-MEL-28 cells assessed as growth inhibition at 10 uM after 24 hrs by SRB assay; format: functional; conditions: SK-MEL-28, 24 h, read-out: GI
[41] = system: SF-295; assay: Cytotoxicity against human SF295 cells assessed as growth inhibition at 10 uM after 24 hrs by SRB assay; format: functional; conditions: SF-295, 24 h, read-out: GI
[42] = system: HOP-62; assay: Cytotoxicity against human HOP62 cells after 48 hrs by SRB assay; format: functional; conditions: HOP-62, 48 h
[43] = system: Malme-3M; assay: Cytotoxicity against human MALME-3M cells assessed as growth inhibition at 10 uM after 24 hrs by SRB assay; format: functional; conditions: read-out: GI
[44] = system: OVCAR-8; assay: Cytotoxicity against human OVCAR8 cells assessed as growth inhibition at 10 uM after 24 hrs by SRB assay; format: functional; conditions: OVCAR-8, 24 h, read-out: GI
[45] = system: OVCAR-3; assay: Cytotoxicity against human OVCAR3 cells assessed as growth inhibition at 10 uM after 24 hrs by SRB assay; format: functional; conditions: OVCAR-3, 24 h, read-out: GI
[46] = system: SR; assay: Cytotoxicity against human SR cells assessed as growth inhibition at 10 uM after 24 hrs by SRB assay; format: functional; conditions: read-out: GI
[47] = system: TK-10; assay: Cytotoxicity against human TK10 cells assessed as growth inhibition at 10 uM after 24 hrs by SRB assay; format: functional; conditions: TK-10, 24 h, read-out: GI
[48] = system: HOP-92; assay: Cytotoxicity against human HOP92 cells assessed as growth inhibition at 10 uM after 24 hrs by SRB assay; format: functional; conditions: HOP-92, 24 h, read-out: GI

Work on COc1nc(OC)nc(-c2cc(C(=O)c3ccc(Br)cc3)n3ccccc23)n1 yielded an inhibition of growth at 10 µM [1] of 61%, an inhibition of growth at 10 µM [2] of 50% and an inhibition of growth at 10 µM [3] of 75%. The inhibition of growth at 10 µM [4] was 56%, the inhibition of growth at 10 µM [5] was 27% and the inhibition of growth at 10 µM [6] was 65%. It also gave an inhibition of growth at 10 µM [7] of 59%, a GI50 [8] of 29100 nM and a GI50 [9] of 1870 nM. It also gave an inhibition of growth at 10 µM [10] of 55%, a GI50 [11] of 1080 nM and an inhibition of growth at 10 µM [12] of 88%. For the same compound, the inhibition of growth at 10 µM [13] was 22%, the inhibition of growth at 10 µM [14] was 62% and the GI50 [15] was 920 nM. It also gave an inhibition of growth at 10 µM [16] of 12%, a GI50 [17] of 3320 nM and a GI50 [18] of 2600 nM. For the same compound, the inhibition of growth at 10 µM [19] was 48%, the inhibition of growth at 10 µM [20] was 75% and the inhibition of growth at 10 µM [21] was 96%. For the same compound, the GI50 [22] was 83800 nM, the inhibition of growth at 10 µM [23] was 45% and the “growth inhibition (GI)” value [24] was “inactive”. For the same compound, the GI50 [25] was 870 nM, the inhibition [26] was “inactive” and the inhibition of growth at 10 µM [27] was 52%. It also gave an inhibition of growth at 10 µM [28] of 70%, an inhibition of growth at 10 µM [29] of -11% and an inhibition of growth at 10 µM [30] of 26%. It also gave an inhibition of growth at 10 µM [31] of 18%, an inhibition of growth at 10 µM [32] of 40% and an inhibition of growth at 10 µM [33] of 30%. It also gave an inhibition of growth at 10 µM [34] of 62%, an inhibition of growth at 10 µM [35] of 96% and a GI50 [36] of 4740 nM. The inhibition of growth at 10 µM [37] was 76%, the inhibition of growth at 10 µM [38] was -5% and the inhibition of growth at 10 µM [39] was 70%. For the same compound, the inhibition of growth at 10 µM [40] was 63%, the inhibition of growth at 10 µM [41] was 87% and the GI50 [42] was 2180 nM. It also gave an inhibition of growth at 10 µM [43] of 37%, an inhibition of growth at 10 µM [44] of 52% and an inhibition of growth at 10 µM [45] of 44%. The inhibition of growth at 10 µM [46] was 36%, the inhibition of growth at 10 µM [47] was 78% and the inhibition of growth at 10 µM [48] was 59%.
